This is an account of results in publication PMC5566834 (2017).

The subject of assay [1] is Rd 13 Scrambled (S) (DNA, aptamer) GCTGTGTGCGTGAGTGGAGTGCGCGCGAGAGTGAGTGCGGTGAGAGATTCGGTGTGCGTGTCGTGATGAATGCGACCGG
In words: circular dichroism. The settings on record: 0.2 mM Mg2+; 20 mM Tris pH 7.4; 10 μM aptamer, 100 μM posaconazole; no CD change. On the technique in general: CD spectra are sensitive to the conformation of chiral molecules.

The test system of assay [2] is Rd 13 (DNA, aptamer) CGGGGGGAGGCGGAGGGAGGACTGGGGCTTCATTGACGTTCTTCACAGTAGGGGTAAGGGCTTAGGTGGTTGGTGCCTG
Put plainly: competitive fluorescence anisotropy. As to conditions: 140 mM Na+, 2 mM K+, 5 mM Mg2+, 2 mM Ca2+, 20 mM Tris pH 7.4, PosBD displaced, 1,000 pmol drug in 125 μl. (In general: In fluorescence polarisation assays a small probe gives low polarisation when free and higher when bound to something large.)

In assay [3] the test system is amino-Rd 13 (DNA, aptamer) CGGGGGGAGGCGGAGGGAGGACTGGGGCTTCATTGACGTTCTTCACAGTAGGGGTAAGGGCTTAGGTGGTTGGTGCCTG
Put plainly: graphene field effect transistor, Dirac voltage shift. As to conditions: 140 mM Na+, 2 mM K+, 5 mM Mg2+, 2 mM Ca2+; SELEX buffer (20 mM Tris pH 7.4, 0.05% Tween); Langmuir-Hill fit; also printed as 1.8 ± 0.5 μg/ml.

For `CC[C@@H]([C@H](C)O)n1ncn(-c2ccc(N3CCN(c4ccc(OC[C@@H]5CO[C@@](Cn6cncn6)(c6ccc(F)cc6F)C5)cc4)CC3)cc2)c1=O`, the binding result in assay [1] was “no”; in assay [2] (greatest displacement) it was “yes”. Further, the dissociation constant in assay [3] is 2.6 ± 0.7 µM.

Regarding `CCC(C)n1ncn(-c2ccc(N3CCN(c4ccc(OCC5COC(Cn6cncn6)(c6ccc(Cl)cc6Cl)O5)cc4)CC3)cc2)c1=O` (stereo not shown), the binding result in assay [2] (less than posaconazole) is given as “weak”.
